How the values were obtained:
[1] = Summary of the strongest expressions over the administration routes; conditions: strongest level of the three administrations
From the text: (§1) Finally, the expression levels of lipid nanoparticles with a plurality of tertiary amine groups from the embodiments of the present disclosure after intramuscular injection, white adipocyte administration, and intraperitoneal injection are summarized, and compared with lipid nanoparticles prepared from commercially available cationic lipids MC3 and SM102. […] However, the expression rates of the phosphatidylamine lipids with a plurality of tertiary amine groups from embodiments of the present disclosure are higher than that of SM102.

white adipocyte = experiment: White adipocyte administration, expression relative to SM102; type: cell-based; conditions: for White adipocyte administration (PL/SM102) expression strength level: ratio of expression PL/SM102
From the text: as §1

[2] = test system: Fluc-mRNA (luciferase expression); experiment: In vivo transfection efficiency of Fluc-mRNA lipid nanoparticles after intramuscular injection; parameters: species or system mice; conditions: for Intramuscular injection (PL/MC3) expression strength level: ratio of expression PL/MC3; for in vivo transfection (expression, FIG. 5): weight ratio lipid nanoparticle/RNA 10:1, DOPE or DSPC group; for in vivo transfection (expression, FIG. 5) / expression in vivo compared with control MC3: 3 μg Fluc-mRNA/mouse; for expression in vivo compared with control MC3: DOPE group, weight ratio 10:1
Experimental: 6 h after intramuscular injection of mRNA LNPs, mice were injected intraperitoneally with 0.2 mL […] (20 mg/mL PBS solution). After 10 min, mice were anesthetized with isoflurane in oxygen in a ventilated anesthesia room and imaged with an imaging system (IVIS, PerkinElmer), and luminescence was quantified using Living Image software (PerkinElmer).

adipose tissue = experiment: Intraperitoneal injection of Fluc-mRNA LNPs, expression and distribution; type: in vivo, mice; conditions: for Intraperitoneal injection (PL/SM102) expression strength level: ratio of expression PL/SM102; for expression compared with control SM102: intraperitoneal injection
Experimental: FIG. 10 illustrates the effect of Fluc-mRNA LNPs composed of different structural cationic lipids on the mRNA delivery efficiency after intraperitoneal administration according to some embodiments of the present disclosure. Targeting and expression of PL lipids on adipose tissue after intraperitoneal administration is also evaluated. […] That is to say, the PL lipid structure with the plurality of tertiary amino group structures may enhance the selective targeting of visceral adipocytes. […]
as §1

Row | SMILES | Summary of the strongest expressions [1] | White adipocyte administration (PL/SM102) expression strength level (white adipocyte) | Intramuscular injection (PL/MC3) expression strength level [2] | in vivo transfection (expression, FIG. 5) [2] | Intraperitoneal injection (PL/SM102) expression strength level (adipose tissue) | expression in vivo compared with control MC3 [2] | expression compared with control SM102 (white adipocyte; white adipocyte administration) | expression compared with control SM102 (adipose tissue)
1 | CCCCCCCC/C=C\CCOC(=O)CCCOP(=O)(NCCN(CCCCCCCCCCCC)CCCN(C)C)OCCCC(=O)OCC/C=C\CCCCCCCC [PL13] | A (A: ≥2) | D (D: <0.1) | A (A: ≥2) | expressed |  |  |  | 
2 | CCCCC/C=C\C/C=C\CCCCCCCCOP(=O)(NCCCN(CC(O)CCCCCCCCCC)CC(O)CN(CC(O)CCCCCCCCCC)CC(O)CCCCCCCCCC)OCCCCCCCC/C=C\C/C=C\CCCCC (stereo not drawn) [PL19] | C (C: ≥0.1 and <1) | C (C: ≥0.1 and <1) |  |  | D (D: <0.1) |  |  | 
3 | CCCCC/C=C\C/C=C\CCCCCCCCOP(=O)(NCCN1CCN(CCOC(=O)CCN(CCCCCCCCCCCC)CCCCCCCCCCCC)CC1)OCCCCCCCC/C=C\C/C=C\CCCCC [PL26] | A (A: ≥2) | C (C: ≥0.1 and <1) | A (A: ≥2) | expressed |  | better than that of control MC3 |  | 
4 | CCCCC/C=C\C/C=C\CCCCCCCCOP(=O)(NCCCN1CCN(CCCN(CCCCCCC(=O)OC(CCCCCCCC)CCCCCCCC)CCCCCCC(=O)OC(CCCCCCCC)CCCCCCCC)CC1)OCCCCCCCC/C=C\C/C=C\CCCCC [PL28] | A (A: ≥2) | C (C: ≥0.1 and <1) | A (A: ≥2) | expressed |  |  |  | 
5 | CCCCC/C=C\C/C=C\CCCCCCCCOP(=O)(NCCCN1CCN(CCCN(CCCCCCC(=O)OC(CC)CCCCCCCC)CCCCCCC(=O)OC(CC)CCCCCCCC)CC1)OCCCCCCCC/C=C\C/C=C\CCCCC (stereo not drawn) [PL29] | A (A: ≥2) | B (B: ≥1 and <2) | A (A: ≥2) | expressed |  | better than that of control MC3 | superior to that of the control SM102 | 
6 | CCCCC/C=C\C/C=C\CCCCCCCCOP(=O)(NCCCN1CCN(CCCN(CCCCCCCCCCCC)CCCCCCCCCCCC)CC1)OCCCCCCCC(=O)OC(CCCCCCCC)CCCCCCCC (stereo not drawn) [PL30] | A (A: ≥2) | D (D: <0.1) | A (A: ≥2) | expressed |  | better than that of control MC3 |  | 
7 | CCCCCCCCCCCCN(CCCCCCCCCCCC)CCCN1CCN(CCCNP(=O)(OCCCCCCCC(=O)OC(CCCCCCCC)CCCCCCCC)OCCCCCCCC(=O)OC(CCCCCCCC)CCCCCCCC)CC1 [PL31] | A (A: ≥2) | D (D: <0.1) | A (A: ≥2) | expressed |  | better than that of control MC3 |  | 
8 | CCCCCCCCCCCCN(CCCCCCCCCCCC)CCCN1CCN(CCCNP(=O)(OCCCCCCCC(=O)OC(CC)CCCCCCCC)OCCCCCCCC(=O)OC(CC)CCCCCCCC)CC1 (stereo not drawn) [PL32] | A (A: ≥2) |  | A (A: ≥2) | expressed |  |  |  | 
9 | CCCCCCCCCCCCN(CCCCCCCCCCCC)CCCN1CCN(CCCNP(=O)(OCC(CCCCCC)CCCCCCCC)OCC(CCCCCC)CCCCCCCC)CC1 (stereo not drawn) [PL33] | A (A: ≥2) |  | A (A: ≥2) | expressed |  |  |  | 
10 | CCCCCCCCCCC(CCCCCCCCCC)CN(CCCN1CCN(CCCNP(=O)(OCCCCCCCC(=O)OC(CCCCCCCC)CCCCCCCC)OCCCCCCCC(=O)OC(CCCCCCCC)CCCCCCCC)CC1)CC(CCCCCCCCCC)CCCCCCCCCC [PL36] | C (C: ≥0.1 and <1) | C (C: ≥0.1 and <1) |  |  |  |  |  | 
11 | CCCCCCCCCCC(CCCCCCCCCC)CNCCCN1CCN(CCCNP(=O)(OCCCCCCCC(=O)OC(CCCCCCCC)CCCCCCCC)OCCCCCCCC(=O)OC(CCCCCCCC)CCCCCCCC)CC1 [PL41] | A (A: ≥2) | C (C: ≥0.1 and <1) | A (A: ≥2) | expressed |  |  |  | 
12 | CCCCC/C=C\C/C=C\CCCCCCCCOP(=O)(NCCCN1CCN(CCCNCC(CCCCCC)CCCCCCCC)CC1)OCCCCCCCC/C=C\C/C=C\CCCCC (stereo not drawn) [PL44] | C (C: ≥0.1 and <1) | C (C: ≥0.1 and <1) | C (C: ≥0.1 and <1) |  |  |  |  | 
13 | CCCCCCCCC(CCCCCC)CNCCCN1CCN(CCCNP(=O)(OCC(CCCCCC)CCCCCCCC)OCC(CCCCCC)CCCCCCCC)CC1 (stereo not drawn) [PL45] | C (C: ≥0.1 and <1) | C (C: ≥0.1 and <1) | C (C: ≥0.1 and <1) |  |  |  |  | 
14 | CCCCC/C=C\C/C=C\C/C=C\CCCCC(=O)OCCOP(=O)(NCCCN1CCN(CCCN(CCCCCCCCCCCC)CCCCCCCCCCCC)CC1)OCCOC(=O)CCCC/C=C\C/C=C\C/C=C\CCCCC [PL93] | A (A: ≥2) |  |  |  | A (A: ≥2) |  |  | superior to that of the control SM102
15 | CCCCC/C=C\C/C=C\C/C=C\CCCCCOP(=O)(NCCCN1CCN(CCCN(CCCCCCCCCCCC)CCCCCCCCCCCC)CC1)OCCCCC/C=C\C/C=C\C/C=C\CCCCC [PL94] | A (A: ≥2) |  |  |  | A (A: ≥2) |  |  | superior to that of the control SM102
16 | CCCCCCCCCCCCN(CCCCCCCCCCCC)CCCN1CCN(CCCNP(=O)(OCCC(C)CCCC(C)CCCC(C)CCCC(C)C)OCCC(C)CCCC(C)CCCC(C)CCCC(C)C)CC1 (stereo not drawn) [PL95] | A (A: ≥2) |  |  |  | A (A: ≥2) |  |  | superior to that of the control SM102
17 | CCCCCCCCCCCCN(CCCCCCCCCCCC)CCCN1CCN(CCCNP(=O)(OCCOC(=O)CC(C)CCCC(C)CCCC(C)CCCC(C)C)OCCOC(=O)CC(C)CCCC(C)CCCC(C)CCCC(C)C)CC1 (stereo not drawn) [PL96] | C (C: ≥0.1 and <1) |  |  |  | C (C: ≥0.1 and <1) |  |  | 
18 | CCCCCCCCCCCCN(CCCCCCCCCCCC)CCCN1CCN(CCCNP(=O)(OCCCCCCCC(=O)OC(C)CC(=O)OCC)OCCCCCCCC(=O)OC(C)CC(=O)OCC)CC1 (stereo not drawn) [PL97] | C (C: ≥0.1 and <1) |  |  |  | C (C: ≥0.1 and <1) |  |  | 
19 | CCCCC/C=C\C/C=C\CCCCCCCCOP(=O)(NCCCN1CCN(CCCN(CCCCCCCCCCCC)CCCCCCCCCCCC)CC1)OCCCCCCCC(=O)OC(CC)CCCCCCCC (stereo not drawn) [PL103] | A (A: ≥2) |  | A (A: ≥2) | expressed |  |  |  | 

From patent US20260085081A1, “PHOSPHATIDYLAMINE COMPOUNDS INCLUDING A PLURALITY OF TERTIARY AMINO GROUP STRUCTURES AND COMPOSITIONS THEREOF” (PEKING UNIVERSITY, priority 2022, published 2026)
